Test results from patent US5436229A, “Bisulfite adducts of arginine aldehydes” (Eli Lilly and Company, priority 1994, dated 1995).
Non-standard residues stand in square brackets, D forms with d. Residues, ends and D or L forms follow the SMILES beside them. dPip = O=C(O)[C@H]1CCCCN1

How the values were obtained:
[1] = tested on: coronary artery thrombosis; experiment: Canine Model of Coronary Artery Thrombosis; format: in vivo, dogs
Method: Surgical preparation and instrumentation of the dogs are as described in Jackson, et al., Circulation, 82, 930-940 (1990). Mixed-breed hounds (aged 6-7 months, either sex, Hazelton-LRE, Kalamazoo, Mich., U.S.A.) are anesthetized with sodium pentobarbital (30 mg/kg intravenously, i.v.), intubated, and ventilated with room air. Tidal volume and respiratory rates are adjusted to maintain blood PO2, PCO2, and pH within normal limits. Subdermal needle electrodes are inserted for the recording of a lead II ECG.
The left jugular vein and common carotid artery are isolated through a left mediolateral neck incision. Arterial blood pressure (ABP) is measured continuously with a precalibrated Millar transducer (model (MPC-500, Millar Instruments, Houston, Tex., U.S.A.) inserted into the carotid artery. The jugular vein is cannulated for blood sampling during the experiment. In addition, the femoral veins of both hindlegs are cannulated for administration of test compound.
A left thoracotomy is performed at the fifth intercostal space, and the heart is suspended in a pericardial cradle. A 1- to 2-cm segment of the left circumflex coronary artery (LCX) is isolated proximal to the first major diagonal ventricular branch. A 26-gauge needle-tipped wire anodal electrode (Teflon-coated, 30-gauge silverplated copper wire) 3-4 mm long is inserted into the LCX and placed in contact with the intimal surface of the artery (confirmed at the end of the experiment). The stimulating circuit is completed by placing the cathode in a subcutaneous (s.c.) site. An adjustable plastic occluder is placed around the LCX, over the region of the electrode. […] All hemodynamic and ECG measurements are recorded and analyzed with a data acquisition system (model M3000, Modular Instruments, Malvern, Pa. U.S.A.).
Electrolytic injury of the intima of the LCX is produced by applying 100-μA direct current (DC) to the anode. […] Thrombus formation proceeds spontaneously until the LCX is totally occluded (determined as zero CBF and an increase in the S-T segment). […]

[2] = target: human thrombin (Homo sapiens, UniProt P00734); experiment: Thrombin amidase inhibition (Kass), chromogenic substrate; format: biochemical
In short: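 Purified human thrombin (8 NIH units/ml solution) mixed with compound in 50% aqueous methanol and 0.03M Tris, 0.15M NaCl, pH 7.4; chromogenic substrate (0.25 mg/ml solution) added, p-nitroaniline release followed at 405 nm. Free thrombin read from a standard curve; Kass (L/mol) is the mean over a range of compound concentrations.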

[3] = target: T1, tissue plasminogen activator (t-PA) (Homo sapiens, UniProt P00750); experiment: Serine protease inhibition (Kass), t-PA; format: biochemical
T1 construct: purchased American Diagnostica, Greenwich, Conn
T1 sequence (P00750 36-562): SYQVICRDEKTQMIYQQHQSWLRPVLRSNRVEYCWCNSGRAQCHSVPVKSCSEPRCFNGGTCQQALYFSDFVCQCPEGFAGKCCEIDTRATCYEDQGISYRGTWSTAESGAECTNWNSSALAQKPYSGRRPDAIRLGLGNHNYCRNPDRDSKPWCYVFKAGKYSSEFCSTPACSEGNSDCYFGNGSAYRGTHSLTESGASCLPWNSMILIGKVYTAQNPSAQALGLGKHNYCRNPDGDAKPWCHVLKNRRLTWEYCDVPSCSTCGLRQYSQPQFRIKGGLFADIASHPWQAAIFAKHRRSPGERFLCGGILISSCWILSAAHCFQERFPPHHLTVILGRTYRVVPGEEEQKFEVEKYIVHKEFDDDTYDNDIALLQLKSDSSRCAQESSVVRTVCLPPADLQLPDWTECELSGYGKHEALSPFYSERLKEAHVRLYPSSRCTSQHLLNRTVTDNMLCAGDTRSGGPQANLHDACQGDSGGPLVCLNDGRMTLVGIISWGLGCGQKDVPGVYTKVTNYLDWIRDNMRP

[4] = Pharmacokinetic Model, oral gavage; format: in vivo; conditions: dogs, single 2 mg/kg oral gavage
Method: Male dogs (Beagles; 18 months-2 years; 12-13 kg, Marshall Farms, North Rose, N.Y. 14516) are fasted overnight and fed Purina certified Prescription Diet (Purina Mills, St. Louis, Mo.) 240 minutes after dosing. Water is available ad libitum. The room temperature is maintained between 66°-74° F.; 45-50 percent relative humidity; and lighted from 0600-1800 hours.
Test compound is formulated immediately prior to dosing by dissolving in sterile 0.9 percent saline to a 5 mg/ml preparation. Dogs are given a single 2 mg/kg dose of test compound by oral gavage. Blood samples (4.5 ml) are taken from the cephalic vein at 0.25, 0.5, 0.75, 1,2,3,4 and 6 hours after dosing. Samples are collected in citrated Vacutainer tubes and kept on ice prior to reduction to plasma by centrifugation. Plasma samples are derivatized with dinitrophenylhydrazine and analyzed by HPLC (Zorbax SB-C8 column) eluting with methanol/500 mM sodium acetate adjusted to pH7 with phosphoric acid (60:40, v/v). Plasma concentration of test compound is recorded and used to calculate the pharmacokinetic parameters: elimination rate constant, Ke; total clearance, Clt; volume of distribution, VD; time of maximum plasma test compound concentration, Tmax; maximum concentration of test compound of Tmax, Cmax; plasma half-life, t0.5; and area under the curve, A.U.C.; fraction of test compound absorbed, F.

[5] = tested on: template bleeding time; experiment: Template Bleeding Time assay; format: in vivo, dogs; conditions: 0.25, 0.50 and 1.0 mg/kg.hr, over a 240 minute time
Method: Whole blood cell counts, hemoglobin, and hematocrit values are determined on a 40-μl sample of citrated (3.8 percent) blood (1 part citrate:9 parts blood) with a hematology analyzer (Cell-Dyn 900, Sequoia-Turner. Mount View, Calif., U.S.A.). Gingival template bleeding times are determined with a Simplate II bleeding time device (Organon Teknika Durham, N.C., U.S.A.). The device is used to make 2 horizontal incisions in the gingiva of either the upper or lower left jaw of the dog. Each incision is 3 mm wide×2 mm deep. The incisions are made, and a stopwatch is used to determine how long bleeding occurs. A cotton swab is used to soak up the blood as it oozes from the incision. Template bleeding time is the time from incision to stoppage of bleeding. Bleeding times are taken just before administration of test compound (0 min), 60 min into infusion, at conclusion of administration of the test compound (120 min), and at the end of the experiment.
All data are analyzed by one-way analysis of variance (ANOVA) followed by Student-Neuman-Kuels post hoc t test to determine the level of significance. Repeated-measures ANOVA are used to determine significant differences between time points during the experiments. Values are determined to be statistically different at least at the level of p<0.05. All values are mean±SEM. […]

[6] = Index of Bioavailability (plasma TT AUC, oral vs i.v.); format: in vivo; conditions: rats, oral vs i.v. bolus
Excerpt: Assays are done in duplicate and averaged.
Each sample population represents alternating sequential time points.

With `Cl.Cl.N=C(N)NCCC[C@@H](C=O)NC(=O)[C@@H]1CCCN1C(=O)[C@H]1CCCCN1` [Example 1, D-Homoprolinyl-L-Prolinyl-L-Arginine Aldehyde Dihydrochloride] (H-[dPip]-Pro-Arg-aldehyde) the “Time to Occlusion” value ([1]; dose 0.25 mg/kg.hr) was 60 min, the “Time to Occlusion” value ([1]; dose 0.50 mg/kg.hr) was 150 min and the “Time to Occlusion” value ([1]; dose 1.00 mg/kg.hr) was over 225 min. The “Kass Human Thrombin” value [2] was 46 L/mol × 10^6, the “Kass t-PA” value [3] was 0.02 L/mol × 10^6 and the A.U.C. o-infinity [4] was 4651 ng·h/mL. For the same compound, the Clt/F [4] was 0.437 L/h/kg, the Cmax [4] was 1676 ng/mL and the Ke [4] was 0.0104 min.-1. For the same compound, the Tmax [4] was 1 to 2 h, the VD/F [4] was 0.729 L/kg and the t0.5 [4] was 67 min. For the same compound, the “effect on template bleeding time” value [5] was “no significant effect on template bleeding time” and the “Percent Relative Activity (Index of Bioavailability)” value [6] was 38%.
